The target of this test is TTX resistant Na channel of human SNS-expressing cell (SNS) (Homo sapiens, UniProt Q9Y5Y9). In words: cell-based. As to conditions: CHO-K1, compound concentration 12.5 μM; read-out: SNS inhibitory rate (%).
Sequence of TTX resistant Na channel of human SNS-expressing cell (SNS) (Q9Y5Y9 whole entry, looked up): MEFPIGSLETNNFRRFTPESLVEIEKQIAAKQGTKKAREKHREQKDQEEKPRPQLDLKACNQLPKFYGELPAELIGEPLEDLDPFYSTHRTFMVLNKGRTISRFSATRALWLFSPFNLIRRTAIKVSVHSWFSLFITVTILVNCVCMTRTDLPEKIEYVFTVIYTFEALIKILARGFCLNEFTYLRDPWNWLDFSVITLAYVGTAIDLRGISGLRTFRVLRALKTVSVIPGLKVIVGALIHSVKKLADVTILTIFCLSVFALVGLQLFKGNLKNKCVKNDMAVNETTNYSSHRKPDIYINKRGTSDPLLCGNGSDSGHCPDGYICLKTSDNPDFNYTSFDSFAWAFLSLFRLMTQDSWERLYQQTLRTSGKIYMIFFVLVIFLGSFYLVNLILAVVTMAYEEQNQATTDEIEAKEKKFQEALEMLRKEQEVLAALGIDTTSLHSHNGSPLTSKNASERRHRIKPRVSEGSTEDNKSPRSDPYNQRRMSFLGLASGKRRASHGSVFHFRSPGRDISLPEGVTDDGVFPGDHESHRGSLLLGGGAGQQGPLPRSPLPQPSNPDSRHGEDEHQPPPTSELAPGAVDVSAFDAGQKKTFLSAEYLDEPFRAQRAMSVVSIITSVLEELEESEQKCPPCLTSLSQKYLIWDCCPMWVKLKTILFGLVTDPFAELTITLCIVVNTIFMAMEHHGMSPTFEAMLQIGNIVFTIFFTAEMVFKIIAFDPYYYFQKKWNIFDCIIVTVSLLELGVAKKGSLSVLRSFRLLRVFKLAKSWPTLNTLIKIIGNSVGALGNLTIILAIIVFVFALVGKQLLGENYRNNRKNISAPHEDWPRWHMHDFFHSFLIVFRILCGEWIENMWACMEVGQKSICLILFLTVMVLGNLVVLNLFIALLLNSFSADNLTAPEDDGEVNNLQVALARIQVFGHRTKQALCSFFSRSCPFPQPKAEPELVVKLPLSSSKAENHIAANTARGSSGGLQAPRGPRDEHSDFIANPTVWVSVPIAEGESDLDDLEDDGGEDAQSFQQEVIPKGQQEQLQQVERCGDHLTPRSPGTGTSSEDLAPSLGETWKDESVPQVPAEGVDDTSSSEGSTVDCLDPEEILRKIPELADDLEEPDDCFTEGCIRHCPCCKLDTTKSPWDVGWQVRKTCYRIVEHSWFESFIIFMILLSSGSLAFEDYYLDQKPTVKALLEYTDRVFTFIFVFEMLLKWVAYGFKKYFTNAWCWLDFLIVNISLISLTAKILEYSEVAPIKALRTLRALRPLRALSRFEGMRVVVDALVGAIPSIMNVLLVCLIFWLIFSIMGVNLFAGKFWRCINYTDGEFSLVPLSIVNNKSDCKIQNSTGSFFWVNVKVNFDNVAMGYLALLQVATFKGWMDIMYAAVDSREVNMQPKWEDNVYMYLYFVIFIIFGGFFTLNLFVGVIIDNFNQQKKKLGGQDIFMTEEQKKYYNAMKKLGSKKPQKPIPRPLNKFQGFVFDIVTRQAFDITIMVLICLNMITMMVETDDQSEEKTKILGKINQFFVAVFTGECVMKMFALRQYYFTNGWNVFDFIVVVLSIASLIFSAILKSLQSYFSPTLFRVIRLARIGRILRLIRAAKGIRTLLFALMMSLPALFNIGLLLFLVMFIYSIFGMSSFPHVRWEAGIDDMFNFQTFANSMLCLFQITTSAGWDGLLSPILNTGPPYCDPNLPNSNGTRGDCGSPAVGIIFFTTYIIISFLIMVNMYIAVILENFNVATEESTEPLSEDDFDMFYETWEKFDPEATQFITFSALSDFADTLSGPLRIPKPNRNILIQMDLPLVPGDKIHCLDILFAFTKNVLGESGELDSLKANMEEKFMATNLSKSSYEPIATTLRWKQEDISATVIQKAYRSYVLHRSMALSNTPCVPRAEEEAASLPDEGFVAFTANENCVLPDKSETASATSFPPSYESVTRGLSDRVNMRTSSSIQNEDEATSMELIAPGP
`CCn1c(CN[C@@H](C)C(N)=O)nc2cc(F)c(-c3ccc(F)cc3)cc21` [Example 111, N^2-{[1-ethyl-5-fluoro-6-(4-fluorophenyl)-1H-benzimidazol-2-yl]methyl}-L-alaninamide]: the inhibition at 12.5 µM turned out to be 88.4%.
In the case of `CCOCCn1c(CN[C@@H](C)C(N)=O)nc2ccc(Oc3cccc(F)c3)cc21` [Example 53] it was 94%; in that of `CCOCCn1c(CNC(C)(C)C(N)=O)nc2ccc(OCc3ccccc3)cc21` [Example 77, N^2-{[6-(benzyloxy)-1-(2-ethoxyethyl)-1H-benzimidazol-2-yl]methyl}-2-methylalaninamide], 16%; in that of `COCCn1c(CNCC(N)=O)nc2ccc(Oc3ccc(F)cc3)cc21` [Example 63], 9.2%.
On to `C[C@H](NCc1nc2ccc(Oc3ccc(F)cc3)cc2n1C[C@@H]1CCCO1)C(N)=O` [Example 56], for which the inhibition at 12.5 µM worked out at 82.2%.
In the case of `CCOCCn1c(CN[C@@H](C)C(N)=O)nc2c(Cl)cc(-c3ccc(F)cc3)cc21` [Example 112, N^2-{[4-chloro-1-(2-ethoxyethyl)-6-(4-fluorophenyl)-1H-benzimidazol-2-yl]methyl}-L-alaninamide] it was 0%; in that of `CCOCCn1c(CN[C@@H](C)C(=O)NCC(C)(C)O)nc2ccc(Oc3ccc(F)cc3)cc21` [Example 87, N^2-{[1-(2-ethoxyethyl)-6-(4-fluorophenoxy)-1H-benzimidazol-2-yl]methyl}-N-(2-hydroxy-2-methylpropyl)-L-alaninamide], 90.1%; in that of `CCOCCn1c(CNC(C)(C)C(N)=O)nc2ccc(-c3ccc(C)c(C)c3)cc21` [Example 162], 67.3%.
In the case of `CCOCCn1c(CN[C@@H](C)C(N)=O)nc2cc(C)c(-c3ccc(F)c(F)c3)cc21` [Example 190] it was 34.3%; in that of `CCOCCn1c(CN[C@@H](C)C(=O)NCCN2CCOCC2)nc2ccc(Oc3ccc(F)cc3)cc21` [Example 89], 83%.
With `CCOCCCn1c(CN[C@@H](C)C(N)=O)nc2ccc(Oc3ccc(F)cc3)cc21` [Example 47] the figure was 86.6%.
As for `CCn1c(CN[C@@H](C)C(N)=O)nc2ccc(-c3ccc(F)cc3)cc21` [Example 110, N^2-{[1-ethyl-6-(4-fluorophenyl)-1H-benzimidazol-2-yl]methyl}-L-alaninamide], the inhibition at 12.5 µM worked out at 9.8%.
As to `C[C@H](NCc1nc2ccc(Oc3ccc(F)cc3)cc2n1C1CCN(C(=O)OC(C)(C)C)CC1)C(N)=O` [Example 82, tert-butyl 4-[2-({[(2S)-1-amino-1-oxopropan-2-yl]amino}methyl)-6-(4-fluorophenoxy)-1H-benzimidazol-1-yl]piperidine-1-carboxylate], the inhibition at 12.5 µM came out at 30.7%.
Consider `CCOCCn1c(CNC(C)(C)C(N)=O)nc2ccc(Oc3ccc(F)cc3)cc21` [Example 5, N^2-{[1-(2-ethoxyethyl)-6-(4-fluorophenoxy)-1H-benzimidazol-2-yl]methyl}-2-methylalaninamide], for which the inhibition at 12.5 µM is 59.3%.
With `CCOCCn1c(CN[C@@H](C)C(N)=O)nc2ccc(-c3ccc(C)cc3C)cc21` [Example 159] the figure was 96.1%; with `C[C@H](NCc1nc2ccc(Oc3ccc(F)cc3)cc2n1CCO)C(N)=O` [Example 117, N^2-{[6-(4-fluorophenoxy)-1-(2-hydroxyethyl)-1H-benzimidazol-2-yl]methyl}-L-alaninamide], 78.8%; with `CC(C)(NCc1nc2ccc(Oc3ccc(F)cc3)cc2n1C1CCOCC1)C(N)=O` [Example 8], 90.4%.
In the case of `C[C@H](NCc1nc2ccc(Oc3ccc(F)cc3F)cc2n1C1CC1)C(N)=O` [Example 99] it was 65.4%.
In the case of `C[C@@H](NCc1nc2ccc(Oc3ccccc3)cc2n1C1CCC1)C(N)=O` [Example 34] it was 6.7%; in that of `CCOCCn1c(CNCC(N)=O)nc2ccc(-c3ccccc3Cl)cc21` [Example 70], 11.2%; in that of `NC(=O)CNCc1nc2ccc(Oc3ccc(F)cc3)cc2n1C1CCOCC1` [Example 65], 47.8%.
Regarding `CCn1c(CN[C@@H](C)C(N)=O)nc2ccc(Oc3ccc(F)cc3)cc21` [Example 139], the inhibition at 12.5 µM was 96%.
Turning to `CCOCCn1c(CN[C@H](C(N)=O)C(C)C)nc2ccc(Oc3ccccc3)cc21` [Example 38], the inhibition at 12.5 µM worked out at 48.8%.
`CCOCCn1c(CN[C@@H](C)C(N)=O)nc2cc(Cl)c(-c3ccc(F)cc3)cc21` [Example 92, N^2-{[5-chloro-1-(2-ethoxyethyl)-6-(4-fluorophenyl)-1H-benzimidazol-2-yl]methyl}-L-alaninamide]: the inhibition at 12.5 µM stood at 66.7%.
For `CCOCCn1c(CN[C@@H](C)C(=O)N2CCNC(=O)C2)nc2ccc(Oc3ccc(F)cc3)cc21` [Example 106], the inhibition at 12.5 µM is 86.4%.
In the case of `C[C@H](NCc1nc2cc(F)c(-c3ccc(F)cc3)cc2n1C1CCOCC1)C(N)=O` [Example 116, N^2-{[5-fluoro-6-(4-fluorophenyl)-1-(tetrahydro-2H-pyran-4-yl)-1H-benzimidazol-2-yl]methyl}-L-alaninamide], the inhibition at 12.5 µM is 33.2%.
With `CCOCCn1c(CN[C@@H](CC)C(N)=O)nc2ccc(-c3ccc(F)cc3)cc21` [Example 150] the figure was 45.6%.
For the molecule `C[C@H](NCc1nc2ccc(Oc3ccc(F)cc3)cc2n1C1CCNCC1)C(N)=O` [Example 83, N^2-{[6-(4-fluorophenoxy)-1-(piperidin-4-yl)-1H-benzimidazol-2-yl]methyl}-L-alaninamide], the inhibition at 12.5 µM was 0%.
Regarding `CCOCCn1c(CN[C@@H](C)C(N)=O)nc2c(F)cc(-c3ccc(F)cc3)cc21` [Example 114, N^2-{[1-(2-ethoxyethyl)-4-fluoro-6-(4-fluorophenyl)-1H-benzimidazol-2-yl]methyl}-L-alaninamide], the inhibition at 12.5 µM was 6.5%.
In the case of `CCn1c(CNC(C)(C)C(N)=O)nc2cc(F)c(-c3ccc(F)cc3)cc21` [Example 187] it was 53.3%; in that of `CCOCCn1c(CN[C@@H](C)C(N)=O)nc2ccc(-c3ccc(F)cc3OC)cc21` [Example 172], 50.9%.
As to `CCOCCn1c(CN[C@@H](C)C(N)=O)nc2cc(F)c(-c3ccc(F)c(C)c3)cc21` [Example 188], the inhibition at 12.5 µM was 87%.
With `C[C@H](NCc1nc2ccc(Oc3ccc(OC(F)(F)F)cc3)cc2n1C[C@H]1CCCO1)C(N)=O` [Example 132] the figure was 86.4%; with `CCOCCn1c(CN[C@@H](C)C(N)=O)nc2ccc(-c3ccc(C(F)(F)F)cc3)cc21` [Example 146], 19.7%; with `C[C@H](NCc1nc2ccc(Oc3ccc(F)cc3)cc2n1C1CCOCC1)C(N)=O` [Example 6], 77.8%.
In the case of `CCOCCn1c(CN[C@@H](C)C(N)=O)nc2ccc(Oc3cccc(F)c3F)cc21` [Example 58] it was 71.2%; in that of `CCOCCn1c(CN[C@@H](C)C(N)=O)nc2ccc(-c3ccc(F)cc3F)cc21` [Example 147], 23.5%; in that of `CCOCCn1c(CN[C@@H](C)C(N)=O)nc2cc(Cl)c(-c3ccc(F)c(F)c3)cc21` [Example 180], 4.5%.
With `C[C@H](NCc1nc2ccc(Oc3ccc(OC(F)(F)F)cc3)cc2n1C[C@@H]1CCCO1)C(N)=O` [Example 120] the figure was 92.4%.
Take `CCOCCn1c(CN[C@@H](C)C(N)=O)nc2ccc(-c3ccc(C)c(F)c3)cc21` [Example 169]: the inhibition at 12.5 µM stood at 68.1%.
As for `CCOCCn1c(CN[C@@H](C)C(N)=O)nc2cc(F)c(Oc3ccc(F)cc3)cc21` [Example 81, N^2-{[1-(2-ethoxyethyl)-5-fluoro-6-(4-fluorophenoxy)-1H-benzimidazol-2-yl]methyl}-L-alaninamide], the inhibition at 12.5 µM came out at 69.1%.
In the case of `C[C@H](NCc1nc2ccc(Oc3ccccc3)cc2n1CC1CCOCC1)C(N)=O` [Example 13] it was 29.8%; in that of `CCOCCn1c(CN[C@@H](C)C(N)=O)nc2ccc(Oc3ccccc3F)cc21` [Example 52], 89.7%; in that of `CCOCCn1c(CN[C@@H](C)C(N)=O)nc2ccc(Oc3ccccc3)nc21` [Example 79, N^2-{[3-(2-ethoxyethyl)-5-phenoxy-3H-imidazo[4,5-b]pyridin-2-yl]methyl}-L-alaninamide], 3.5%.
As to `C[C@H](NCc1nc2ccc(Oc3ccc(F)cc3)cc2n1C1CC1)C(N)=O` [Example 7], the inhibition at 12.5 µM was 83.1%.
With `CCOCCn1c(CN(C)CC(N)=O)nc2ccc(Oc3ccccc3)cc21` [Example 40], the inhibition at 12.5 µM was 95.8%.
For the molecule `CCOCCn1c(CNC(C)(C)C(N)=O)nc2ccc(-c3ccc(C)cc3C)cc21` [Example 160], the inhibition at 12.5 µM amounted to 97%.
In the case of `CC(C)NC(=O)N1CCC(n2c(CN[C@@H](C)C(N)=O)nc3ccc(Oc4ccc(F)cc4)cc32)CC1` [Example 84, 4-[2-({[(2S)-1-amino-1-oxopropan-2-yl]amino}methyl)-6-(4-fluorophenoxy)-1H-benzimidazol-1-yl]-N-(propan-2-yl)piperidine-1-carboxamide] it was 76.8%; in that of `C[C@H](NCc1nc2ccc(Oc3ccc(F)c(F)c3)cc2n1C[C@H]1CCCO1)C(N)=O` [Example 124], 87.8%; in that of `CC(=O)N1CCC(n2c(CN[C@@H](C)C(N)=O)nc3ccc(Oc4ccc(F)cc4)cc32)CC1` [Example 85, N^2-{[1-(1-acetylpiperidin-4-yl)-6-(4-fluorophenoxy)-1H-benzimidazol-2-yl]methyl}-L-alaninamide], 24.9%.
For the molecule `CCOCCn1c(CN[C@@H](C)C(=O)N2CCNC(C(F)(F)F)C2)nc2ccc(Oc3ccc(F)cc3)cc21` (stereo partly drawn) [Example 108], the inhibition at 12.5 µM is 85.3%.
Regarding `CCOCCn1c(CN[C@H](C)C(N)=O)nc2ccc(Oc3ccccc3)cc21` [Example 36], the inhibition at 12.5 µM was determined as 0.4%.
Regarding `CCOCCn1c(CN[C@@H](C)C(N)=O)nc2ccc(Oc3cc(F)c(F)c(F)c3)cc21` [Example 44], the inhibition at 12.5 µM was 84.9%.
With `C[C@H](NCc1nc2ccc(Oc3ccc(OC(F)(F)F)cc3)cc2n1C1CCOCC1)C(N)=O` [Example 130] the figure was 42.1%.

Source of the values: US20130303535A1, “NOVEL BICYCLIC HETEROCYCLIC COMPOUND” (priority 2008, published 2013).
